Data: patent US20250257062A1, “GLP-1R Agonist and Therapeutic Method Thereof” (Ascletis Pharma (China) Co., Limited, priority 2023, published 2025)

Assays:
hGLP-1R = hGLP-1R (Homo sapiens (Human), UniProt P43220); assay: hGLP-1R cAMP assay (agonist cAMP stimulation, Flp-In-293-GLP1R cells); format: cell-based; conditions: 30 min at 37° C.
Method: hGLP-1R cAMP Assay • 1. Cell line and reagent preparation • 1) Cell line: Flp-In-293-GLP1R • 2) Medium: DMEM+10% FBS+1×Penicillin-Streptomycin+200 μg/mL HB • 3) Test buffer: 1×HBSS+20 mM HEPES+0.1% BSA+500 μM IBMX • 2. Agonist test • a) Flpin-293-GLP1R cells were incubated in a 384-well assay plate (6007680-50, PE) using complete medium with 2,000 cells per well. • b) Prepared a 4× […] working solution with assay buffer. • c) Added 5 μL of 4× Compound Working Solution to the cell plate and incubated at 37° C. for 30 minutes. • d) Diluted Eu-cAMP tracer (1/50) with lysis buffer and added 10 μl/well to the assay plate. • e) Diluted Ulight-anti-cAMP (1/150) with lysis buffer and added 10 μl/well to the assay plate. • f) Incubated at constant temperature for 1 hour. • g) Read the plate on Envision 2105 plate reader at […]. • 3. Data Analysis • 3.1 The formula for calculating % Activity was as follows
[formula] • 3.2 Calculate EC50 and plot the effect-dose curve for cmpds:
[formula] • X: logarithm of agonist concentration; Y: percentage activity.

[1] = Single-dose oral administration pharmacokinetic study in SD rats; format: in vivo; conditions: Sprague-Dawley, rat, 5 mg/kg, plasma; for Cmax: male SD rats; for AUC(0-t): male, po, exposure over 0-24 hours
Method: Single-dose oral administration pharmacokinetic (PK) studies in Sprague-Dawley (SD) rats Pharmacokinetic (PK) studies after a single-dose oral administration for compounds.
Protocol: Animals: Male Sprague-Dawley (SD) rats; Solvent: Solutol: PEG400: Tween80: Saline=10:40:2:48 (v/v/v/v); Dose: 5 mg/kg; Dosing concentration: 0.5 mg/mL in the solvent; Dosing volume: 10 mL/kg. Sample Collection: At each time point, approximately 0.15 mL of blood was drawn from the jugular vein sinus, and the collected whole blood was placed in an anticoagulant tube containing EDTA-K2. After collecting blood samples, they were processed with protein precipitation and then analyzed by LC-MS/MS.

hGLP-1R, sequence (P43220 24-463): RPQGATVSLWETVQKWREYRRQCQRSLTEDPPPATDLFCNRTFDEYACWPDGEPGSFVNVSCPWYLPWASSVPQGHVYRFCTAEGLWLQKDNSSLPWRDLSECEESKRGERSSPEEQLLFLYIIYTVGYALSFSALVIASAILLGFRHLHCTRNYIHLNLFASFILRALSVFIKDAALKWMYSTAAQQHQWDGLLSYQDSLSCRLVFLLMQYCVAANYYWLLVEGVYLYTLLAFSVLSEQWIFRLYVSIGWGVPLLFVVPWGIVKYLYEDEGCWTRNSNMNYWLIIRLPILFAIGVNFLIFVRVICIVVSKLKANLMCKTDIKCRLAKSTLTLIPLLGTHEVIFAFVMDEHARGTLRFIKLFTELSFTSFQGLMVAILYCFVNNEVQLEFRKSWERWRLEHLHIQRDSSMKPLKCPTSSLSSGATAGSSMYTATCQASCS

Structure (SMILES) | EC50 (hGLP-1R) [nM] | Cmax [1] [ng/mL] | AUC(0-t) [1] [ng·h/mL]
C[C@H]1c2c(nn(-c3ccc(F)c(C4CC4)c3)c2-n2ccn(-c3ccc(CP(C)(C)=O)cc3)c2=O)CCN1C(=O)c1cc2cc(C3CCOCC3)ccc2n1[C@@]1(c2noc(=O)[nH]2)C[C@@H]1C [Compound 51] | 0.028 |  | 
C[C@H]1c2c(nn(-c3ccc(F)c4c3CCC4)c2-n2ccn(-c3ccc4c(cnn4C4CC4)c3F)c2=O)CCN1C(=O)c1cc2cc(C3CCOCC3)ccc2n1[C@@]1(c2noc(=O)[nH]2)C[C@@H]1C [Compound 45] | 0.015 | 3210 | 29600
C[C@H]1c2c(nn(-c3ccc(F)c(C4CC4)c3)c2-n2ccn(-c3ccc4c(cnn4C4CC4)c3F)c2=O)CCN1C(=O)c1cc2cc(C3CCOCC3)ccc2n1[C@@]1(c2noc(=O)[nH]2)C[C@@H]1C [Compound 33] | 0.02 | 5610 | 71200
